In PubChem BioAssay (NCI):
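GI50 = concentration required for 50% inhibition of growth. At the TGI there is no net growth.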

Experiments:
Assay in all cases: NCI tumour cell line growth inhibition, 384-well format; in the data active means GI50 below about 0.43 µM; inactive means the rest
TK-10 renal = tested on: TK-10 renal
A549 NSCLC = tested on: A549 NSCLC
NCI-H322M lung = tested on: NCI-H322M lung
HCT-15 colon = tested on: HCT-15 colon
BT-549 breast = tested on: BT-549 breast
RPMI-8226 leukemia = tested on: RPMI-8226 leukemia
MDA-MB-468 breast = tested on: MDA-MB-468 breast
M14 melanoma = tested on: M14 melanoma
SK-OV-3 ovarian = tested on: SK-OV-3 ovarian
SNB-19 CNS = tested on: SNB-19 CNS
UACC-257 melanoma = tested on: UACC-257 melanoma
MDA-MB-435 melanoma = tested on: MDA-MB-435 melanoma
MALME-3M melanoma = tested on: MALME-3M melanoma
HT29 colon = tested on: HT29 colon
SNB-75 CNS = tested on: SNB-75 CNS
SF-295 CNS = tested on: SF-295 CNS
RXF 393 renal = tested on: RXF 393 renal
MOLT-4 leukemia = tested on: MOLT-4 leukemia
KM12 colon = tested on: KM12 colon
SF-268 CNS = tested on: SF-268 CNS
NCI-H23 lung = tested on: NCI-H23 lung
U251 glioblastoma = tested on: U251 glioblastoma
HS 578T breast = tested on: HS 578T breast
OVCAR-8 ovarian = tested on: OVCAR-8 ovarian
OVCAR-5 ovarian = tested on: OVCAR-5 ovarian
SK-MEL-5 melanoma = tested on: SK-MEL-5 melanoma
MDA-MB-231 breast = tested on: MDA-MB-231 breast
PC-3 prostate = tested on: PC-3 prostate
CAKI-1 renal = tested on: CAKI-1 renal
HCT-116 colon = tested on: HCT-116 colon
HL-60(TB) leukemia = tested on: HL-60(TB) leukemia
NCI-H522 lung = tested on: NCI-H522 lung
OVCAR-4 ovarian = tested on: OVCAR-4 ovarian
OVCAR-3 ovarian = tested on: OVCAR-3 ovarian
SR leukemia = tested on: SR leukemia
IGROV1 ovarian = tested on: IGROV1 ovarian
K-562 leukemia = tested on: K-562 leukemia
SN12C renal = tested on: SN12C renal
CCRF-CEM leukemia = tested on: CCRF-CEM leukemia
SK-MEL-2 melanoma = tested on: SK-MEL-2 melanoma
HOP-92 NSCLC = tested on: HOP-92 NSCLC
A498 renal = tested on: A498 renal
LOX IMVI melanoma = tested on: LOX IMVI melanoma
SW-620 colon = tested on: SW-620 colon
SF-539 CNS = tested on: SF-539 CNS
ACHN renal = tested on: ACHN renal
786-0 renal = tested on: 786-0 renal
HCC-2998 colon = tested on: HCC-2998 colon
NCI-H226 lung = tested on: NCI-H226 lung
NCI-H460 NSCLC = tested on: NCI-H460 NSCLC
UO-31 renal = tested on: UO-31 renal
DU-145 prostate = tested on: DU-145 prostate
SK-MEL-28 melanoma = tested on: SK-MEL-28 melanoma
T-47D breast = tested on: T-47D breast
UACC-62 melanoma = tested on: UACC-62 melanoma
HOP-62 NSCLC = tested on: HOP-62 NSCLC

COc1ccc(-c2c(Nc3ccccn3)nc3c(C4=CCCCC4)c(-c4ccccc4)[nH]n3c2=O)cc1
5720 nM: TGI (HCT-116 colon)
> 100000 nM: TGI (TK-10 renal) | TGI (A549 NSCLC) | TGI (NCI-H322M lung) | TGI (HCT-15 colon) | TGI (BT-549 breast) | TGI (M14 melanoma) | TGI (SK-OV-3 ovarian) | TGI (SNB-19 CNS) | TGI (UACC-257 melanoma) | TGI (MDA-MB-435 melanoma) | TGI (MALME-3M melanoma) | TGI (HT29 colon) | TGI (SNB-75 CNS) | TGI (SF-295 CNS) | TGI (KM12 colon) | TGI (SF-268 CNS) | TGI (NCI-H23 lung) | TGI (U251 glioblastoma) | TGI (OVCAR-8 ovarian) | TGI (OVCAR-5 ovarian) | TGI (PC-3 prostate) | TGI (CAKI-1 renal) | TGI (OVCAR-4 ovarian) | TGI (IGROV1 ovarian) | TGI (K-562 leukemia) | TGI (SN12C renal) | TGI (A498 renal) | TGI (SW-620 colon) | TGI (SF-539 CNS) | TGI (ACHN renal) | TGI (786-0 renal) | TGI (HCC-2998 colon) | TGI (NCI-H226 lung) | TGI (UO-31 renal) | TGI (SK-MEL-28 melanoma) | TGI (T-47D breast) | TGI (UACC-62 melanoma)
1850 nM: TGI (HL-60(TB) leukemia)
3320 nM: TGI (OVCAR-3 ovarian)
9510 nM: TGI (DU-145 prostate)
2780 nM: TGI (MDA-MB-468 breast)
6850 nM: TGI (MDA-MB-231 breast)
9100 nM: TGI (SK-MEL-2 melanoma)
1880 nM: TGI (RPMI-8226 leukemia)
14500 nM: TGI (HS 578T breast)
9610 nM: TGI (HOP-62 NSCLC)
2720 nM: TGI (RXF 393 renal)
10900 nM: TGI (NCI-H522 lung)
2640 nM: TGI (SK-MEL-5 melanoma)
active: GI50 (RPMI-8226 leukemia) 288 nM | GI50 (RXF 393 renal) 108 nM | GI50 (MOLT-4 leukemia) 189 nM | GI50 (SR leukemia) 222 nM | GI50 (CCRF-CEM leukemia) 304 nM | GI50 (A498 renal) 309 nM | GI50 (NCI-H460 NSCLC) 353 nM
8410 nM: TGI (LOX IMVI melanoma)
inactive: GI50 (TK-10 renal) 1640 nM | GI50 (A549 NSCLC) 1440 nM | GI50 (NCI-H322M lung) 1060 nM | GI50 (HCT-15 colon) 1360 nM | GI50 (BT-549 breast) 461 nM | GI50 (MDA-MB-468 breast) 967 nM | GI50 (M14 melanoma) 841 nM | GI50 (SK-OV-3 ovarian) 604 nM | GI50 (SNB-19 CNS) 2000 nM | GI50 (UACC-257 melanoma) 1610 nM | GI50 (MDA-MB-435 melanoma) 3080 nM | GI50 (MALME-3M melanoma) 1290 nM | GI50 (HT29 colon) 4210 nM | GI50 (SNB-75 CNS) 8110 nM | GI50 (SF-295 CNS) 1120 nM | GI50 (KM12 colon) 2160 nM | GI50 (SF-268 CNS) 589 nM | GI50 (NCI-H23 lung) 1330 nM | GI50 (U251 glioblastoma) 1270 nM | GI50 (HS 578T breast) 1060 nM | GI50 (OVCAR-8 ovarian) 2110 nM | GI50 (OVCAR-5 ovarian) 2320 nM | GI50 (SK-MEL-5 melanoma) 835 nM | GI50 (MDA-MB-231 breast) 1240 nM | GI50 (PC-3 prostate) 1580 nM | GI50 (CAKI-1 renal) 1380 nM | GI50 (HCT-116 colon) 1280 nM | GI50 (HL-60(TB) leukemia) 580 nM | GI50 (NCI-H522 lung) 1040 nM | GI50 (OVCAR-4 ovarian) 1590 nM | GI50 (OVCAR-3 ovarian) 1000 nM | GI50 (IGROV1 ovarian) 2450 nM | GI50 (K-562 leukemia) 928 nM | GI50 (SN12C renal) 1990 nM | GI50 (SK-MEL-2 melanoma) 2180 nM | GI50 (HOP-92 NSCLC) 1940 nM | GI50 (LOX IMVI melanoma) 989 nM | GI50 (SW-620 colon) 3000 nM | GI50 (SF-539 CNS) 1460 nM | GI50 (ACHN renal) 1790 nM | GI50 ([…]-0 renal) 2410 nM | GI50 (HCC-2998 colon) 2410 nM | GI50 (NCI-H226 lung) 2010 nM | GI50 (UO-31 renal) 3360 nM | GI50 (DU-145 prostate) 727 nM | GI50 (SK-MEL-28 melanoma) 3090 nM | GI50 (T-47D breast) 1060 nM | GI50 (UACC-62 melanoma) 890 nM | GI50 (HOP-62 NSCLC) 717 nM
1100 nM: TGI (CCRF-CEM leukemia)
1090 nM: TGI (SR leukemia)
431 nM: TGI (MOLT-4 leukemia)
2760 nM: TGI (NCI-H460 NSCLC)
74900 nM: TGI (HOP-92 NSCLC)
